Source: ChEMBL document CHEMBL1201862, “PubChem BioAssay data set” (2004)
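Dose response: 5 concentrations. Exposure: 48 h. Format: 96-well plates. Endpoint: linear interpolation; highest concentration if not reached. GI50 marks 50% less growth.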 Activity calls are given as the source filed them. Rule as the data show it: active = GI50 up to about 1.1 µM and inactive = higher.

Legend:
Assay in all cases: DTP human tumour cell line panel, 48 h
786-0 = tested on: 786-0
A498 = tested on: A498
A549 = tested on: A549
ACHN = tested on: ACHN
CAKI-1 = tested on: CAKI-1
COLO 205 = tested on: COLO 205
EKVX = tested on: EKVX
HT-29 = tested on: HT-29
Hs-578T = tested on: Hs-578T
KM12 = tested on: KM12
M14 = tested on: M14
MCF7 = tested on: MCF7
OVCAR-5 = tested on: OVCAR-5
SF-268 = tested on: SF-268
SF-539 = tested on: SF-539
SW-620 = tested on: SW-620
U-251 = tested on: U-251
UO-31 = tested on: UO-31
MDA-N = tested on: MDA-N
NCI-H226 = tested on: NCI-H226

Measured: GI50

CCC1OC2C(CC=C(C)C)=C3OC(C)(O)C(C)(CC)C(OC(C)=O)C3=C3OC(=O)C=C1C32 (stereo not given)
inactive: 786-0 37.7 µM | A498 36.7 µM | A549 31.6 µM | ACHN 39.6 µM | CAKI-1 28.2 µM | COLO 205 28.2 µM | EKVX 33.3 µM | HT-29 22.8 µM | Hs-578T 39.7 µM | KM12 23.1 µM | M14 30.5 µM | MCF7 30.1 µM | OVCAR-5 22 µM | SF-268 31.4 µM | SF-539 19.6 µM | SW-620 53.7 µM | U-251 30.3 µM | UO-31 22.6 µM

CN(C)c1ccc(C2CC(=O)CC(c3ccc(N(C)C)cc3)C23C(=O)NC(=O)NC3=O)cc1 (stereo not given)
inactive: 786-0 12.4 µM | ACHN > 25 µM | CAKI-1 > 25 µM | COLO 205 > 25 µM | EKVX > 25 µM | HT-29 > 25 µM | KM12 > 25 µM | M14 > 25 µM | MCF7 > 25 µM | MDA-N > 25 µM | NCI-H226 > 25 µM | OVCAR-5 > 25 µM | SF-268 19.5 µM | SF-539 14.9 µM | SW-620 > 25 µM | U-251 20.6 µM | UO-31 > 25 µM

CC(=O)O[C@H]1C[C@@H](OC(C)=O)[C@@](C)(O)[C@@H]2[C@@H](OC(C)=O)[C@@]3(O)[C@H](/C=C(/CCl)[C@H]4O[C@H]4[C@@H](OC(C)=O)[C@@]12C)OC(=O)[C@@H]3C
inactive: 786-0 > 25 µM | A498 > 25 µM | A549 > 25 µM | ACHN > 25 µM | CAKI-1 > 25 µM | COLO 205 > 25 µM | EKVX > 25 µM | HT-29 > 25 µM | Hs-578T > 25 µM | KM12 > 25 µM | M14 > 25 µM | MDA-N 12 µM | NCI-H226 > 25 µM | OVCAR-5 > 25 µM | SF-268 > 25 µM | SW-620 > 25 µM | U-251 > 25 µM | UO-31 > 25 µM

Cc1c(Cl)c(=O)oc2cc(OCC(=O)c3ccccc3)ccc12
inactive: A498 > 100 µM | A549 > 100 µM | ACHN > 100 µM | CAKI-1 > 100 µM | COLO 205 > 100 µM | EKVX > 100 µM | HT-29 > 100 µM | Hs-578T > 100 µM | KM12 > 100 µM | M14 > 100 µM | MCF7 > 100 µM | MDA-N > 100 µM | NCI-H226 > 100 µM | OVCAR-5 > 100 µM | SF-268 > 100 µM | SF-539 > 100 µM | SW-620 > 100 µM | U-251 33.2 µM | UO-31 > 100 µM

N#CCCC(CCC#N)(CCC#N)NO
inactive: 786-0 > 100 µM | A549 > 100 µM | ACHN > 100 µM | CAKI-1 > 100 µM | COLO 205 > 100 µM | EKVX > 100 µM | HT-29 > 100 µM | Hs-578T > 100 µM | KM12 > 100 µM | M14 > 100 µM | MCF7 > 100 µM | MDA-N > 100 µM | NCI-H226 > 100 µM | OVCAR-5 > 100 µM | SF-268 > 100 µM | SF-539 > 100 µM | SW-620 > 100 µM | U-251 > 100 µM | UO-31 > 100 µM

COc1ccc(C2c3cc4c(cc3OC(NCCO)C2C)OCO4)cc1 (stereo not given)
inactive: A498 17.3 µM | A549 21.7 µM | ACHN 29.6 µM | CAKI-1 23.5 µM | COLO 205 18.4 µM | EKVX 32 µM | HT-29 20 µM | Hs-578T 19.3 µM | KM12 31.7 µM | M14 26.4 µM | MCF7 27.3 µM | MDA-N 18.2 µM | NCI-H226 28.2 µM | OVCAR-5 39.7 µM | SF-268 23.2 µM | SF-539 20 µM | SW-620 34.4 µM | U-251 21.2 µM | UO-31 20.5 µM

C[C@]12CC/C(=N\O)C=C1CC[C@@H]1[C@@H]2CC[C@]2(C)C(=N/O)/C(=C/c3cccnc3)C[C@@H]12
inactive: 786-0 28.4 µM | A498 14.5 µM | A549 13.1 µM | ACHN 16.8 µM | COLO 205 17.2 µM | EKVX 18.4 µM | HT-29 19 µM | Hs-578T 3.63 µM | KM12 6.98 µM | M14 16.5 µM | MCF7 6.97 µM | MDA-N 12.5 µM | NCI-H226 3.63 µM | OVCAR-5 24.2 µM | SF-539 25.2 µM | SW-620 31.8 µM | U-251 22.6 µM | UO-31 4.9 µM

CC(C)(C)C1=C(Br)C(Br)(C(C)(C)C)OP1(=O)c1ccccc1 (stereo not given)
inactive: 786-0 > 100 µM | A498 > 100 µM | A549 > 100 µM | ACHN > 100 µM | CAKI-1 > 100 µM | COLO 205 > 100 µM | EKVX > 100 µM | HT-29 > 100 µM | Hs-578T > 100 µM | KM12 > 100 µM | M14 > 100 µM | MCF7 > 100 µM | MDA-N > 100 µM | OVCAR-5 > 100 µM | SF-268 > 100 µM | SF-539 > 100 µM | SW-620 > 100 µM | U-251 > 100 µM | UO-31 > 100 µM

CCCCN(C(=O)c1ccccc1)C1CCC(=O)c2[nH]c3ccccc3c21 (stereo not given)
inactive: 786-0 42.1 µM | A498 29 µM | A549 34.4 µM | ACHN 31.3 µM | CAKI-1 20.8 µM | COLO 205 21 µM | EKVX 51.6 µM | HT-29 20.5 µM | Hs-578T 16.9 µM | KM12 79.6 µM | M14 67.1 µM | MCF7 27.4 µM | MDA-N 50 µM | NCI-H226 29 µM | SF-268 45.4 µM | SF-539 31.5 µM | SW-620 59.4 µM | U-251 29.1 µM | UO-31 66.5 µM

O=C1C=C(Sc2ccccc2)c2nccc3c2c1nc1ccccc13
inactive: 786-0 16.9 µM | A549 31.5 µM | ACHN 19.3 µM | CAKI-1 44.2 µM | COLO 205 16.6 µM | EKVX 20.7 µM | HT-29 11.2 µM | Hs-578T 15.8 µM | KM12 16.7 µM | M14 13.3 µM | MCF7 14.9 µM | MDA-N 16.9 µM | NCI-H226 72.6 µM | OVCAR-5 32.4 µM | SF-268 12.4 µM | SF-539 17.1 µM | SW-620 14.8 µM | U-251 18.5 µM | UO-31 12.8 µM
